Where two headings read alike, the source gives them in different places.
Columns and labels:
[1] = molecular target: T1, T. brucei TryR (trypanothione reductase; TyrR) (Trypanosoma brucei, UniProt P39051); experiment: DTNB-coupled TryR assay, absorbance, 384-well; format: biochemical
[2] = molecular target: T1, T. brucei TryR (trypanothione reductase; TyrR); experiment: DTNB-coupled kinetics, global fit; format: biochemical
[3] = read-out: TryR IC50, pH 7.4, 40 mM HEPES, 1 mM EDTA, 6 μM trypanothione, 50 μM DTNB, 150 μM NADPH, room temperature

T1 sequence (P39051 whole entry): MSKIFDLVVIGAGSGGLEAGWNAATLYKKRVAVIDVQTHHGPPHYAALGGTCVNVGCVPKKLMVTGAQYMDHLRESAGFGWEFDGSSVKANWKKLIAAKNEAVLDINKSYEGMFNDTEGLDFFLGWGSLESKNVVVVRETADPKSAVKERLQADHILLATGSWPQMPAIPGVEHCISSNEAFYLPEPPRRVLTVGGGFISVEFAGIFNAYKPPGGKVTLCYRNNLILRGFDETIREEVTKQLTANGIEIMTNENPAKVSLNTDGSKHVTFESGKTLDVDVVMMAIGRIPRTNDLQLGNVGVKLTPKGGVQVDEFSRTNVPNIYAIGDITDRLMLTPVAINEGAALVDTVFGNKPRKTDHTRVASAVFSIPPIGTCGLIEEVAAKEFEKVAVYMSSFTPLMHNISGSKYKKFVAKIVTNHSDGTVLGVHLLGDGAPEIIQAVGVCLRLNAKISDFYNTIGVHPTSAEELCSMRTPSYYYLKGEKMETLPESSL

| SMILES | IC50 [1] [µM] | other results |
| --- | --- | --- |
| c1ccc2sc(C3(N4CCCCC4)CCCCC3)cc2c1 [compound 1, 1-(1-(Benzo[b]thiophen-2-yl)cyclohexyl)piperidine] |  | IC50 [1, 3]: 3.3 µM |
| c1csc(C2(N3CCCCC3)CCCCC2)c1 [compound 3] |  | IC50 [1, 3]: > 100 µM |
| c1ccc(-c2ccc(C3(N4CCCCC4)CCCCC3)cc2)cc1 [compound 4] | > 100 |  |
| c1ccc2oc(C3(N4CCCCC4)CCCCC3)cc2c1 [compound 5] | 4.4 | Ki [2]: 1.46 µM |
| c1ccc2c(C3(N4CCCCC4)CCCCC3)cccc2c1 [compound 6] | > 100 |  |
| c1ccc2cc(C3(N4CCCCC4)CCCCC3)ccc2c1 [compound 7] | 28 |  |
| c1ccc2sc(C3(N4CCCCC4)CCCCC3)nc2c1 [compound 9] | > 100 |  |
| Brc1ccc2sc(C3(N4CCCCC4)CCCCC3)cc2c1 [compound 12, 1-(1-(5-Bromo-benzo[b]thiophen-2-yl)cyclohexyl)piperidine] | > 100 |  |
| c1ccc2sc(C3(N4CCCC4)CCCCC3)cc2c1 [compound 13] |  | IC50 [1, 3]: 0.91 µM |
| CCN(CC)C1(c2cc3ccccc3s2)CCCCC1 [compound 14] |  | IC50 [1, 3]: 5 µM |
| c1ccc2sc(C3(N4CCOCC4)CCCCC3)cc2c1 [compound 15] | 11 |  |
| CN1CCN(C2(c3cc4ccccc4s3)CCCCC2)CC1 [compound 16] | 10 |  |
| c1ccc2sc(C3(N4CCCCC4)CCCC3)cc2c1 [compound 17] | 11 |  |
| CN1CCC(c2cc3ccccc3s2)(N2CCCCC2)CC1 [compound 18] | 0.93 |  |
| CC(C)(c1cc2ccccc2s1)N1CCCCC1 [compound 19] | 15 |  |
| O=C(c1cc2ccccc2s1)C1(N2CCCCC2)CCCCC1 [compound 24, Benzo[b]thiophen-2-yl(1-(piperidin-1-yl)cyclohexyl)methanone] | > 100 |  |
| OC(c1ccccc1)(c1ccccc1)C1(N2CCCCC2)CCCCC1 [compound 25, Diphenyl(1-(piperidin-1-yl)cyclohexyl)methanol] | > 100 |  |
| CC(C)(C)OC(=O)N1CCC(c2cc3ccccc3s2)(N2CCCCC2)CC1 [compound 27, tert-Butyl 4′-(benzo[b]thiophen-2-yl)-1,4′-bipiperidine-1′-carboxylate] | > 100 |  |
| c1ccc2sc(C3(N4CCCCC4)CCNCC3)cc2c1 [compound 28, 4′-(Benzo[b]thiophen-2-yl)-[1,4′]bipiperidine] | 5.1 |  |
| CC(=O)N1CCC(c2cc3ccccc3s2)(N2CCCCC2)CC1 [compound 29] | 6.6 |  |
| O=C(c1ccccc1)N1CCC(c2cc3ccccc3s2)(N2CCCCC2)CC1 [compound 30, (4′-(Benzo[b]thiophen-2-yl)-1,4′-bipiperidinyl-1′-yl)(phenyl)methanone] | 13 |  |
| O=C(Cc1ccccc1)N1CCC(c2cc3ccccc3s2)(N2CCCCC2)CC1 [compound 31, 1-(4′-(Benzo[b]thiophen-2-yl)-1,4′-bipiperidinyl-1′-yl)-2-phenylethanone] | 12 |  |
| CN(C)CC(=O)N1CCC(c2cc3ccccc3s2)(N2CCCCC2)CC1 [compound 32, 1-(4′-(Benzo[b]thiophen-2-yl)-1,4′-bipiperidinyl-1′-yl)-2-(dimethylamino)ethanone] | 2.6 |  |
| c1ccc2sc(C3(N4CCCCC4)CCN(CCN4CCOCC4)CC3)cc2c1 [compound 33, 4-(2-(4′-(Benzo[b]thiophen-2-yl)-1,4′-bipiperidin-1′-yl)ethyl)morpholine] | 4.4 |  |
| c1ccc(CN2CCC(c3cc4ccccc4s3)(N3CCCCC3)CC2)cc1 [compound 34, 4′-(Benzo[b]thiophen-2-yl)-1′-benzyl-1,4′-bipiperidine] | 19 |  |
| CN(C)CCN1CCC(c2cc3ccccc3s2)(N2CCCCC2)CC1 [compound 35, 2-(4′-(Benzo[b]thiophen-2-yl)-1,4′-bipiperidinyl-1′-yl)-N,N-dimethylethanamine] | > 100 |  |

Source: PMC2929374 (Chemmedchem, 2009)
